Source: patent US20020025332A1, “Cosmetic compositions containing substituted sulfonamide derivatives” (Unilever Home & Personal Care USA, Division of Conopco, Inc., priority 2000, published 2002)
Values joined by “and” are separate entries in the source; they are usually repeats but may differ in a detail not shown here. Identical values can stand only once. Like-named read-outs stand apart in the source and are kept apart here.

System: human sebocytes
Test: Sebum suppression: 14C-acetate label remaining in cultured human sebocytes after treatment
Assay type: cell-based
Conditions: for activity at 1 µM / activity at 10 µM / activity at 100 µM / activity at 0.1 µM: read-out: % of Control; for sebum suppressive activity in the presence of retinol: in the presence of retinol / a retinoid versus compound alone
Method: Compounds A through K were tested for their potential to suppress sebum expression, alone or in the presence of a retinoid.
Secondary cultures of human sebocytes obtained from an adult […] were grown in 48-well tissue culture plates (Costar Corp.; Cambridge, Mass.) or 96-well tissue culture plates (Packard Co.; Meriden, Conn.) until confluent. Sebocyte growth medium consisted of Clonetics Keratinocyte Basal Medium (KBM) supplemented with 14 μg/ml bovine pituitary extract, 0.4 μg/ml hydrocortisone, 5 μg/ml insulin, […], 1.2×10^-10 M cholera toxin, 100 units/ml penicillin, and 100 μg/ml streptomycin. All cultures were incubated at 37° C. in the presence of 7.5% CO2. Medium was changed three times per week.
On the day of experimentation, the growth medium was removed and the sebocytes washed three times with sterile Dulbecco's Modified Eagle Medium (DMEM; phenol red free). Fresh DMEM was added to each sample (duplicates, triplicates, or quadruplicates depending on the experiment) with 5 microliter of test agent solubilized in ethanol either alone or in the presence of one or 10 micromolar of retinol. Controls consisted of addition of ethanol alone, retinol alone, or phenol red, which has estrogen-like activity and is included as a positive control.
Each plate was returned to the incubator for 20 hours followed by the addition of 14C-acetate buffer (5 mM final concentration, 56 mCi/mmol specific activity). Sebocytes were returned to the incubator for four hours afterwhich each culture was rinsed three times with phosphate buffered saline to remove unbound label. Radioactive label remaining in the sebocytes was harvested and counted using a Beckman scintillation counter.

[1] = 1 μM test agent + 10 μM Retinol
[2] = 10 μM test agent + 1 μM Retinol
[3] = Homo sapiens, 1 μM test agent + 1 μM Retinol
[4] = Homo sapiens, 1 μM test agent + 10 μM Retinol
[5] = Homo sapiens, 1 μM test agent alone
[6] = Homo sapiens, 10 μM test agent + 1 μM Retinol
[7] = Homo sapiens, 10 μM test agent alone
[8] = 10 μM test agent + 10 μM Retinol
[9] = Homo sapiens, 10 μM test agent + 10 μM Retinol
[10] = Homo sapiens, 100 μM test agent + 1 μM Retinol
[11] = Homo sapiens, 100 μM test agent + 10 μM Retinol
[12] = Homo sapiens, 100 μM test agent alone

| Compound | % of Control (1 μM test agent + 1 μM Retinol) | % of Control [1] | % of Control (1 μM test agent alone, 1 µM) | % of Control [2] | % of Control (10 μM test agent alone, 10 µM) | activity at 1 µM [3] [%] | activity at 1 µM [4] [%] | activity at 1 µM [5] [%] | activity at 10 µM [6] [%] | activity at 10 µM [7] [%] | sebum suppressive activity in the presence of retinol | % of Control [8] | activity at 10 µM [9] [%] | activity at 100 µM [11] [%] | activity at 100 µM [12] [%] | also measured |
| --- | --- | --- | --- | --- | --- | --- | --- | --- | --- | --- | --- | --- | --- | --- | --- | --- |
| COc1ccc(S(=O)(=O)Nc2cccc(C(C)O)c2)cc1 (stereo not drawn) [Compound A] | 102.5% | 94.6% | 100.7% | 65.8% | 91.9% | 112 | 101 | 111 | 46 | 109 | improved sebum suppressive activity | – | – | – | – | – |
| CC(O)c1cccc(NS(=O)(=O)c2c(F)c(F)c(F)c(F)c2F)c1 (stereo not drawn) [Compound B] | 94.7% | 96.5% | 98.4% | 90.1% | 89.3% | 90.9 | 96.4 | 79.8 | 80.6 | 95.4 | – | 84.8% | 84.4 | 72.2 | 74.2 | activity at 100 µM [10]: 75.3% |
| CC(O)c1cccc(NS(=O)(=O)c2ccc(Cl)c([N+](=O)[O-])c2)c1 (stereo not drawn) [Compound C] | – | – | – | – | – | 87.7 | 77.5 | 101 | 95.5 | 79 | improved sebum suppressive activity | – | 84.8 | 5.3 | 37.8 | activity at 100 µM [10]: 20.8% |
| CC(O)c1cccc(NS(=O)(=O)c2cccc3c(N(C)C)cccc23)c1 (stereo not drawn) [Compound D] | – | 102.8% | 126.4% and 102.4% | – | 71.6% and 43.3% | 102 | 89.1 | – | 60.8 | – | improved sebum suppressive activity | – | – | 1.2 | 6.7 | – |
| CC(O)c1cccc(NS(=O)(=O)c2cccs2)c1 (stereo not drawn) [Compound E] | 98.3% | 110.2% | 103.3% | 5.7% and 1.6% | – | 103 | 102 | 94.6 | – | – | – | – | – | – | – | – |
| O=[N+]([O-])c1cc(S(=O)(=O)Nc2ccc3c(c2)OCCO3)ccc1Cl [Compound F] | 100.4% and 75.9% | 74.2% | 80.7% | 1.8% and 0.6% | – | – | 89.1 | 79.6 | – | – | – | – | 1.2 | – | – | – |
| O=S(=O)(Nc1ccc2c(c1)OCCO2)c1ccc2ccccc2c1 [Compound G] | – | – | 82.0% | 39.9% | 45.7% and 25.0% | – | – | 67.5 | 24.8 | – | improved sebum suppressive activity | 13.1% | 17.9 | – | – | activity at 0.1 µM (Homo sapiens, 0.1 μM test agent + 1 μM Retinol): 103%; activity at 0.1 µM (Homo sapiens, 0.1 μM test agent + 10 μM Retinol): 94.1%; activity at 0.1 µM (Homo sapiens, 0.1 μM test agent alone, 14C-acetate label in sebocytes): 101% |
| CN(C)c1cccc(NS(=O)(=O)c2ccc(Cl)c([N+](=O)[O-])c2)c1 [Compound H] | 88.0% and 90.2% and 65.1% | 86.8% and 78.8% and 53.6% and 91.1% | 96.1% and 71.7% and 66.6% and 83.4% | – | – | – | – | – | – | – | – | 80.3% and 76.1% and 79.2% and 118.0% | – | 3.9 | 44.2 | – |
| CN(C)c1cccc(NS(=O)(=O)c2ccc3ccccc3c2)c1 [Compound J] | – | 67.9% and 93.8% | 55.6% | – | 81.7% | 74.1 | – | 74.6 | 64.7 | 67.5 | – | 69.8% | 63.9 | 2 | 1.2 | – |
| O=S1(=O)OC(c2ccc(O)cc2)(c2ccc(O)cc2)c2ccccc21 [Phenol Red, phenol red, reference compound] | – | – | – | – | – | – | – | – | – | – | – | – | – | – | – | % of Control (28 μM (positive control) alone, 28 µM): 74.7% and 68.4% and 84.4%; % of Control (280 μM (positive control) alone): 54.2% and 52.5%; activity at 28 µM (Homo sapiens, 28 μM (positive control) alone): 67.6% |
| CC1=C(/C=C/C(C)=C/C=C/C(C)=C/CO)C(C)(C)CCC1 [Retinol, retinol, reference compound] | – | – | 85.5% and 96.5% and 99.9% and 103.7% and 99.3% and 93.9% | – | – | – | – | 98.4 | – | – | – | – | – | – | – | sebum suppressive activity (alone, 1 or 10 μM): inactive |
